In article PMC12300231, “Ferroptosis Among the Antiproliferative Pathways Activated by a Lipophilic Ruthenium(III) Complex as a Candidate Drug for Triple-Negative Breast Cancer” (Pharmaceutics, 2025):

Experiments:
[1] = test system: MDA-MB-231 cells; experiment: Mitochondria morphological analysis by confocal microscopy (MitoTracker Red); type: cell-based, Human; details: MDA-MB-231, 48 h, cDDP 10 µM or Erastin 10 µM, vs untreated cells
Description: Morphological changes in the mitochondria of MDA-MB-231 cells after treatments in vitro were determined using the MitoTracker Red CMXRos selective probe (Ex\Em 579/599 nm). Briefly, 1.5 × 10^4 cells were seeded in a four-well µ-Slide and incubated for 48 h. Then, cells were treated with the IC50 concentration of PalmiPyRu, cDDP (10 µM) or Erastin (10 µM), respectively, for a further 48 h. After incubations, cells were treated with FBS-free medium containing 100 nM MitoTracker at 37 °C for 20 min. To label the nuclei, a DAPI (Ex/Em 358/461 nm) solution (1:1000) was used at room temperature for 10 min of incubation. Fluorescence images were captured using a confocal microscope (Zeiss LSM 900 Airyscan 2) with a 63× magnification (oil-immersion objective).

[2] = test system: BT-549; experiment: Cell survival index (MTT assay plus automated cell count), IC50; type: cell-based, Human; details: BT-549 TNBC cells, 48 h of incubation, mean ± SEM (n = 15)
Description: (§1) The antiproliferative activity was evaluated by estimating a “cell survival index” through targeted bioscreens, which joins cell viability assessment (by the MTT functional assay) with automated cell count (quantitative assay by automatic cell counter). Specifically, the “cell survival index” is calculated as the arithmetic average between the percentage values derived from the MTT assay and automated cell counting. For in vitro treatments, TNBC cell lines (MDA-MB-231, Hs 578T and BT-549) were seeded into 96-well culture plates at a density of 10^4 cells/well and allowed to grow for 24 h. The culture medium was then replaced with fresh medium, and the cells were treated with PalmiPyRu at concentrations ranging from 5 to 150 μM for different times, depending on the type of experiment. Cisplatin (cDDP) was used as a reference drug (positive control).
(§2) The same experimental setup in vitro was applied to assess the biocompatibility of PalmiPyRu on healthy control cell lines (HDFas, HHFKs, HaCaTs and […]). Cell viability was measured using the MTT assay (Sigma, Milan, Italy), which evaluates mitochondrial redox capacity to convert dissolved MTT into insoluble purple formazan. Briefly, after treatments, the medium was removed, and cells were incubated with 20 μL/well of MTT solution (5 mg/mL) for 1 h at 37 °C in a humidified 5% CO2 incubator. […] Finally, absorbance was measured at 550 nm using a microplate reader (ThermoFisher, Waltham, MA, USA). Total cell counting was determined using the TC20 automated cell counter (Bio-Rad, Milan, Italy), which provides accurate and reproducible total cell counts and a live/dead ratio in a single step using a specific dye exclusion assay (Trypan Blue). […] The mixture was loaded into disposable slide chamber and analyzed. The instrument provided a total cell count (cells/mL), live cell count and percent viability, automatically adjusting for dilution if Trypan Blue was detected. […]
(§3) All subsequent in vitro experiments were performed using PalmiPyRu IC50 concentrations, calculated as previously described.

[3] = test system: Hs578T; experiment: as above; type: cell-based, Human; details: Hs578T TNBC cells, 48 h of incubation, mean ± SEM (n = 15)
Description: as §1, §2, §3

[4] = test system: MDA-MB-231; experiment: as above; type: cell-based, Human; details: MDA-MB-231 TNBC cells, 48 h of incubation, mean ± SEM (n = 15)
Description: as §1, §2, §3

[5] = test system: HDFa; experiment: Cell survival index, biocompatibility on healthy cells; type: cell-based; details: 48 h of incubation, mean ± SEM (n = 15)
Description: as §1, §2, §3

[6] = test system: HHFK; experiment: as above; type: cell-based; details: 48 h of incubation, mean ± SEM (n = 15)
Description: as §1, §2, §3

[7] = test system: MCF-10A; experiment: as above; type: cell-based; details: MCF-10A healthy cells, 48 h of incubation, mean ± SEM (n = 15)
Description: as §1, §2, §3

[8] = test system: HaCaT; experiment: as above; type: cell-based, Human; details: 48 h of incubation, mean ± SEM (n = 15)
Description: The antiproliferative activity was evaluated by estimating a “cell survival index” through targeted bioscreens, which joins cell viability assessment (by the MTT functional assay) with automated cell count (quantitative assay by automatic cell counter). Specifically, the “cell survival index” is calculated as the arithmetic average between the percentage values derived from the MTT assay and automated cell counting. For in vitro treatments, TNBC cell lines (MDA-MB-231, Hs 578T and BT-549) were seeded into 96-well culture plates at a density of 10^4 cells/well and allowed to grow for 24 h. […]
as §2, with “formazan.” for “formazan. Briefly, after treatments, the medium was removed, and cells were incubated with 20 μL/well of MTT solution (5 mg/mL) for 1 h at 37 °C in a humidified 5% CO2 incubator.”, “analyzed.” for “analyzed. The instrument provided a total cell count (cells/mL), live cell count and percent viability, automatically adjusting for dilution if Trypan Blue was detected.”

Structure (SMILES)	Mitochondrial red fluorescent signal (MitoTracker) [1]	IC50 [2] [µM]	IC50 [3] [µM]	IC50 [4] [µM]	IC50 [5] [µM]	IC50 [6] [µM]	IC50 [7] [µM]	IC50 [8] [µM]
CCOc1ccccc1-n1c(C(C)N2CCN(C(=O)COc3ccc(Cl)cc3)CC2)nc2ccccc2c1=O (stereo not drawn) [Erastin]	lowered the mitochondrial fluorescent signal							
[NH2][Pt]([NH2])([Cl])[Cl] [cDDP, cisplatin]	significantly reduced	15 ± 2	20 ± 4	11 ± 3	72 ± 4	93 ± 3	88 ± 3	50 ± 3
